Data published in patent US20160115188A1, “NOVEL alpha-GALACTOSYL CERAMIDE ANALOGS AND USES THEREOF” (Chang Gung Memorial Hospital, Linkou, priority 2014, published 2016).

Legend:
mNK1.2 cells = assay: Induction of IL-2 in mNK1.2 cells cultured with compound-loaded A20-CD1d cells (ELISA); type: cell-based, murine; details: cultured with mNK1.2 cells, supernatant after 72 hours
Procedure: The immune response elicited by Compounds 1 and 2a-2i was assessed by the induction of IL-2 in mNK1.2 cells. Compound 1 is illustrated by the following formula: […]
Method: A20-CD 1d cells were loaded with Compound 1 (α-GalCer) and Compounds 2a-2i, and cultured with mNK1.2 cells. Supernatants were collected after 72 hours to determine the production of IL-2 by ELISA.

Human iNKT cells = assay: Cytokine production of human iNKT cells co-cultured with compound-loaded dendritic cells (Luminex); type: cell-based; details: for IFN-γ level induced / IL-2 level induced / IL-4 level induced / IL-10 level induced / GM-CSF level induced: dendritic cells loaded with 1 μM compound, cultured with iNKT cells for 3 days, mean±SD; for ratio of IL-4/IFN-γ / ratio of IL-10/IFN-γ: human iNKT cells with compound-loaded dendritic cells, Th2 skewing
Procedure: The immune response elicited by Compounds 1 and 2a-2i in human NKT cells was evaluated using human dendritic cell (DC).
Method: Human iNKT cells were isolated with anti-TCR Vα24 antibody and cultured for 7 days in the presence of IL-2 (1 μg/mL). The dendritic cells were generated from CD14+ cells, sorted from peripheral blood mononuclear cells (PBMC) by incubating PBMC for 7 days with GM-CSF (50 ng/mL) and IL-4 (50 ng/mL). Dendritic cells were loaded with the following: 1 μM of Compound 1 or 1 μM of Compounds 2a-2i, and cultured with iNKT cells for 3 days. The culture supernatants were collected and analyzed for various cytokines production by Luminex. Data were presented as mean±SD and analyzed by one-way ANOVA.
The ratios of IL-4/IFN-γ and IL-10/IFN-γ were used evaluate if the immune response elicited by Compounds 1 and 2a-2i was skewed toward Th2 mediated response.

[1] = Solubility noted during characterisation; type: physicochemical; details: room temperature; prevented optical rotation measurement
[2] = in words, relative to Compound 1

| Compound | IFN-γ level induced (Human iNKT cells) [pg/mL] | melting point [°C] | ratio of IL-4/IFN-γ (Human iNKT cells) | ratio of IL-10/IFN-γ (Human iNKT cells) | IL-2 level induced (Human iNKT cells) [pg/mL] | IL-4 level induced (Human iNKT cells) [pg/mL] | further results |
| --- | --- | --- | --- | --- | --- | --- | --- |
| CCCCCCCCCCCCCCCCCCCCCCCCCC(=O)N[C@@H](CO[C@H]1O[C@H](COC)[C@H](O)[C@H](O)[C@H]1O)[C@H](O)[C@H](O)CCCCCCCCCCCCCC [Compound 2b, (2S,3S,4R)-1-O-(6-O-methyl-α-D-galactopyranosyl)-D-ribo-2-hexacosanoylamino-1,3,4-octa-decantriol] | 2286 ± 344.3 | – | – | – | – | – | IL-2 level induced (mNK1.2 cells): 13.3 ± 1.3 ng/mL; levels of cytokines induced compared to Compound 1 (Human iNKT cells; [2]): similar |
| CCCCCCCCCCCCCCCCCCCCCCCCCC(=O)N(C)[C@@H](CO[C@H]1OC(COC)[C@H](O)[C@H](O)C1O)[C@H](O)[C@H](O)CCCCCCCCCCCCCC (stereo partly drawn) [Compound 2a, (2S,3S,4R)-1-O-(6-O-methyl-α-D-galactopyranosyl)-D-ribo-2-N-methyl-hexacosanoylamino-1,3,4-octadecantriol] | – | 64 to 66 | 0.032±0.0009 | 0.63±0.07 | – | – | – |
| CCCCCCCCCCCCCCCCCCCCCCCCCC(=O)N[C@@H](CO[C@H]1O[C@H](COCCCCCCCCCCCCCCCCCCCC)[C@H](O)[C@H](O)[C@H]1O)[C@H](O)[C@H](O)CCCCCCCCCCCCCC [Compound 2f, (2S,3S,4R)-1-O-(6-O-eicosanyl-α-D-galactopyranosyl)-D-ribo-2-hexacosanoylamino-1,3,4-oc-tadecantriol] | – | – | 0.093±0.041 | 0.69±0.24 | – | – | – |
| CCCCCCCCCCCCCCCCCCCCCCCCCC(=O)N[C@@H](CO[C@H]1O[C@H](COCCCCCCCCCCCCC)[C@H](O)[C@H](O)[C@H]1O)[C@H](O)[C@H](O)CCCCCCCCCCCCCC [Compound 2e, (2S,3S,4R)-1-O-(6-O-tridecyl-α-D-galactopyranosyl)-D-ribo-2-hexacosanoylamino-1,3,4-oct-adecantriol] | – | – | 0.246±0.053 | 0.73±0.03 | 32.5 ± 1.7 | 140.4 ± 6.1 | – |
| CCCCCCCCCCCCCCCCCCCCCCCCCC(=O)N[C@@H](CO[C@H]1OC(CN)[C@H](O)C(O)C1O)[C@H](O)[C@H](O)CCCCCCCCCCCCCC (stereo partly drawn) [Compound 2i, (2S,3S,4R)-1-O-(6-amine-α-D-galactopyranosyl)-D-ribo-2-hexacosanoylamino-1,3,4-octadecantriol] | 2687 ± 89.4 | 187 to 188 | – | – | – | – | IL-10 level induced (Human iNKT cells): 2001 ± 46.8 pg/mL; level of IFN-γ compared to Compound 1 (Human iNKT cells; [2]): comparable level; level of IL-4 compared to Compound 1 (Human iNKT cells; [2]): lower level; ratio of IL-4/IFN-γ compared to Compound 1 (Human iNKT cells; [2]): lower ratio; solubility [1]: poor solubility |
| CCCCCCCCCCCCCCCCCCCCCCCCCC(=O)N[C@@H](CO[C@H]1O[C@H](COCCCCCC)[C@H](O)[C@H](O)[C@H]1O)[C@H](O)[C@H](O)CCCCCCCCCCCCCC [Compound 2c, (2S,3S,4R)-1-O-(6-O-hexyl-α-D-galactopyranosyl)-D-ribo-2-hexacosanoylamino-1,3,4-octa-decantriol] | – | – | 0.044±0.011 | 0.91±0.26 | – | – | – |
| CCCCCCCCCCCCCCCCCCCCCCCCCC(=O)N[C@@H](CO[C@H]1O[C@H](COCCCCCCCCCCCC)[C@H](O)[C@H](O)[C@H]1O)[C@H](O)[C@H](O)CCCCCCCCCCCCCC [Compound 2d, (2S,3S,4R)-1-O-(6-O-dodecyl-α-D-galactopyranosyl)-D-ribo-2-hexacosanoylamino-1,3,4-oct-adecantriol] | – | – | 0.331±0.074 | 0.83±0.1 | 33.8 ± 0.2 | 191.5 ± 35.3 | – |
| CCCCCCCCCCCCCCCCCCCCCCCC(=O)N[C@@H](COC1OC(CO)C(O)C(O)C1O)[C@H](O)[C@H](O)CCCCC (some centres unmarked) [OCH, reference compound] | – | – | 0.25 | 0.26 | – | – | – |
| CCCCCCCCCCCCCCCCCCCCCCCCCC(=O)N[C@@H](CO[C@H]1OC(COS(=O)(=O)[O-])[C@H](O)C(O)C1O)[C@H](O)[C@H](O)CCCCCCCCCCCCCC.[Na+] (stereo partly drawn) [Compound 2h, (2S,3S,4R)-1-O-(6-O-sulfo-α-D-galactopyranosyl)-D-ribo-2-hexacosanoylamino-1,3,4-octadecantriol, sodium salt] | 2739 ± 14.52 | – | – | – | 60.3 ± 24.4 | 113.9 ± 28.4 | GM-CSF level induced (Human iNKT cells): 2024 ± 108.4 pg/mL |
| CCCCCCCCCCCCCCCCCCCCCCCCCC(=O)N[C@@H](CO[C@H]1OC(COP(=O)(O)O)[C@H](O)C(O)C1O)[C@H](O)[C@H](O)CCCCCCCCCCCCCC (stereo partly drawn) [Compound 2g, (2S,3S,4R)-1-O-(6-O-phospho-α-D-galactopyranosyl)-D-ribo-2-hexacosanoylamino-1,3,4-oc-tadecantriol, phosphoric acid] | 2704 ± 10.3 | 182 | – | – | – | – | GM-CSF level induced (Human iNKT cells): 1350 ± 146.2 pg/mL; IL-10 level induced (Human iNKT cells): 2010 ± 325.1 pg/mL |
